The results in this text go back to the Deep4Chem optical property database.

The nature of the series: photoluminescence quantum yield (fraction); solvent given as SMILES.

Structures are written as SMILES.

As for `CN(C)c1ccc2c(c1)Cc1ccccc1-2`, the photoluminescence quantum yield came to 0.39 (in C1CCOC1); 0.38 (in C1COCCO1); 0.4 (in CC(=O)N(C)C); 0.25 (in CCCCCC); 0.22 (in CCCCCCO); 0.19 (in CCCCCO). The photoluminescence quantum yield by setting is: (in CCCCO) 0.19; (in CCCO) 0.21; (in CCO) 0.2; (in CCOC(C)=O) 0.4; (in CCOCC) 0.31; (in CO) 0.2. This molecule also had a photoluminescence quantum yield (in CS(C)=O) of 0.42, a photoluminescence quantum yield (in O) of 0.12 and a photoluminescence quantum yield (in OC1CCCCC1) of 0.22.
On to `CCOC(=O)c1sc(-c2ccc(-c3cc(-c4cccs4)c(C(=O)OCC)s3)s2)cc1-c1cccs1`, for which the photoluminescence quantum yield (in ClCCl) came to 0.18.
Turning to `COc1ccc(C2=Nc3sc(-c4ccccc4)n[n+]3[B-](F)(F)O2)cc1`, the photoluminescence quantum yield (in Cc1ccccc1) was found to be 0.29.
In turn, `Cc1c(C2=[N+]3C(=Cc4c(C)c5ccccc5n4[B-]3(F)F)c3ccccc32)[nH]c2ccccc12` displayed a photoluminescence quantum yield (in C1CCOC1) of 0.04; a photoluminescence quantum yield (in CC#N) of 0.04; a photoluminescence quantum yield (in CCCCCC) of 0.14; a photoluminescence quantum yield (in CO) of 0.03; a photoluminescence quantum yield (in Cc1ccccc1) of 0.14; a photoluminescence quantum yield (in ClCCl) of 0.08.
Regarding `Clc1ccc2cc3cccc[n+]3cc2c1`, the photoluminescence quantum yield (in O) amounted to 0.2.
As for `CCCCCCCCCCCCCCCCCCOC(=O)/C=C/C1=CC2=C(c3c(C)cc(C)cc3C)c3cccn3[B-](F)(F)[N+]2=C1`, the photoluminescence quantum yield (in ClCCl) is 0.34.
On to `CC(C)[Si](C#Cc1c2nsnc2c(C#C[Si](C(C)C)(C(C)C)C(C)C)c2nc3c(ccc4cc5ccccc5cc43)nc12)(C(C)C)C(C)C`, for which the photoluminescence quantum yield (in CCCCCC) came out at 0.13.
Where the note is “in ClCCl”, `CC1=C(c2ccc(N(C)C)cc2)C(C)=[N+]2C1=C(c1c(-c3ccccn3)nc3ccccn13)c1c(C)cc(C)n1[B-]2(F)F` came in with a photoluminescence quantum yield of 0.0041.
On to `N#CC1=CC(/C=C/c2ccccc2)=CC(C#N)=P1(c1ccccc1)c1ccccc1`, for which the photoluminescence quantum yield (in ClC(Cl)Cl) was 0.13.
In the case of `CN(C)c1ccc(/C=C/c2cnccn2)cc1`, for the setting “in ClCCl”, the photoluminescence quantum yield turned out to be 0.17.
In turn, `COc1ccc(-n2nc(C#N)c(N3CCC(N4CCCCC4)CC3)n2)cc1` displayed a photoluminescence quantum yield (in CC#N) of 0.156.
`[O-][n+]1c(-c2ccc(Br)cc2)cc(N2CCOCC2)nc1/C=C/c1ccccc1` had a photoluminescence quantum yield (in ClCCl) of 0.15.
Take `O=C1Cc2cc3c(cc2CCCc2ccc(cc2)CCC3)CC(=O)Cc2ccc(c3nsnc23)C1`: the photoluminescence quantum yield was 0.13 (in C1CCCCC1), 0.01 (in CC#N) and 0.05 (in ClC(Cl)Cl).
Turning to `CCCC1(CCC)c2cc(-c3ccc(-c4ccc(OC)cc4)o3)ccc2-c2ccc(-c3ccc(-c4ccc(OC)cc4)o3)cc21`, the photoluminescence quantum yield (in C1CCCCC1) is 0.79.
`Brc1cc2nc3cc4c5c(cccc5c3nc2cc1Br)C(c1ccccc1)=C(c1ccccc1)O4`: under “in ClCCl”, the photoluminescence quantum yield was 0.12.
Same read-out and setting: then `COc1ccc(C2=C(c3ccc(OC)cc3)c3cccc4c5c(cc(c34)O2)=NC2C=C(Br)C(Br)=CC2N=5)cc1` (stereo not given), with 0.28.
`CC1(C)C(/C=C/c2cc3ccc(O)cc3oc2=O)=[N+](CCCS(=O)(=O)[O-])c2ccc(S(=O)(=O)O)cc21`: the photoluminescence quantum yield (in CCO) stood at 0.031, the photoluminescence quantum yield (in CS(C)=O) came out at 0.012 and the photoluminescence quantum yield (in O) amounted to 0.013.
For `CN1c2cc3nc4cc(Br)c(Br)cc4nc3cc2N(C)C1(C)C`, the photoluminescence quantum yield (in CCO) came out at 0.11.
Take `CCCCCCC(CCCCCC)N1C(=O)c2cccc3c(-c4cc(OC)c(OC)c(OC)c4)ccc(c23)C1=O`: the photoluminescence quantum yield came to 0.41 (in CCCCCC); 0.51 (in CCCCCCCCCCCCCC); 0.26 (in CCCCCCCCCCCO); 0.022 (in CCCCO); 0.0065 (in CN(C)C=O); 0.71 (in Cc1ccccc1). The molecule also had a photoluminescence quantum yield (in ClC(Cl)Cl) of 0.65.
`CCN(CC)c1ccc2c(C)cc(=O)oc2c1` showed a photoluminescence quantum yield (in CCCCCCCCO) of 0.68; a photoluminescence quantum yield (in CCCCCCO) of 0.66; a photoluminescence quantum yield (in CCCCO) of 0.61; a photoluminescence quantum yield (in CCCO) of 0.62; a photoluminescence quantum yield (in CCO) of 0.41; a photoluminescence quantum yield (in CO) of 0.26. For the setting “in O”, this molecule registered a photoluminescence quantum yield of 0.041.
Where the note is “in ClCCl”, `O=C(c1ccc2c3c(sc2c1)-c1ccccc1P3(=O)c1ccccc1)c1c(F)c(F)c(F)c(F)c1F` (stereo not given) displayed a photoluminescence quantum yield of 0.29.
Regarding `CC(C)(C)c1ccc(C(C)(C)C)c(N2C(=O)c3cccc4c(-c5ccc(-c6ccc([N+](=O)[O-])cc6)s5)ccc(c34)C2=O)c1`, the photoluminescence quantum yield was 0.03 (in CO), 0.17 (in CS(C)=O) and 0.07 (in Cc1ccccc1).
For `CCOC(=O)c1cc(C(=O)OCC)c2cc(N(CC)CC)ccc2n1`, the photoluminescence quantum yield (in CCO) was found to be 0.49.
Regarding `CC(C)(C)c1ccc(C2=c3sc(-c4ccc(C(C)(C)C)cc4)cc3=[N+]3C2=Nc2c(-c4ccc(C(C)(C)C)cc4)c4sc(-c5ccc(C(C)(C)C)cc5)cc4n2[B-]3(F)F)cc1`, where the note is “in ClC(Cl)Cl”, the photoluminescence quantum yield was 0.12.
Where the note is “in ClC(Cl)Cl”, `Cc1cc(C)c(C2=C3C=CC=[N+]3[B-]3(c4ccc5ccc6cccc7ccc4c5c67)Oc4cc(O)cc5c6ccc(C)cc6c6cc2n3c6c45)c(C)c1` (stereo not given) came in with a photoluminescence quantum yield of 0.24.
As for `CC1(C)c2ccccc2N(c2ccc3c(c2)c2cc(N4c5ccccc5C(C)(C)c5ccccc54)ccc2c2nc(C#N)c(C#N)nc32)c2ccccc21`, the photoluminescence quantum yield is 0.12 (in Cc1ccccc1) and 0.33 (in O=P(c1ccccc1)(c1ccccc1)c1cccc(-c2cc(-n3c4ccccc4c4ccccc43)cc(-n3c4ccccc4c4ccccc43)c2)n1).
As for `COc1ccccc1C1=[N+]2C(=C(c3ccccc3)c3c4ccccc4c(-c4ccccc4OC)n3[B-]2(F)F)c2ccccc21`, the photoluminescence quantum yield (in ClCCl) turned out to be 0.91.
Still for that read-out and setting: next, `c1ccc([B-]23NC(C4CCCCC4)=Nc4cccc([n+]42)N=C(C2CCCCC2)N3)cc1`: 0.1.
The molecule `CCCCOC(=O)c1cc(Cl)c2c3c(Cl)cc4c5c(cc(Cl)c(c6c(Oc7ccc(C(=O)OC)cc7)cc(C(=O)OCCCC)c1c26)c53)C(=O)N(c1c(C(C)C)cccc1C(C)C)C4=O` came in with a photoluminescence quantum yield (in Cc1ccccc1) of 0.92.
`c1ccc(-c2nc(-c3ccccc3)c(N(c3ccccc3)c3ccccc3)s2)cc1` had a photoluminescence quantum yield (in ClC(Cl)Cl) of 0.43.
The same measure, in the same setting: then `CC(C)n1c(=O)c2cc3ccc4cccc5ccc(c2c1=O)c3c45`, with 0.49.
`Cn1cc(-c2nc3ccccc3nc2C#Cc2ccc(C#N)cc2)c2ccccc21` yielded a photoluminescence quantum yield (in ClCCl) of 0.15.
Consider `CCCCCCCCCCC1(CCCCCCCCCC)c2cc(-c3nc4ccccc4s3)ccc2-c2ccc(N3C(=O)c4ccc5c6ccc7c8c(ccc(c9ccc(c4c59)C3=O)c86)C(=O)N(c3ccc4c(c3)C(CCCCCCCCCC)(CCCCCCCCCC)c3cc(-c5nc6ccccc6s5)ccc3-4)C7=O)cc21`, for which the photoluminescence quantum yield was 0.23 (in Cc1ccccc1) and 0.0025 (in ClCCl).
For the setting “in ClC(Cl)Cl”, `F[B-]1(F)n2cccc2C(c2ccccc2)=C2C=CC(c3ccc(OC4=[N+]5C(=C(c6ccccc6)c6cc(Br)c(Br)n6[B-]5(F)F)C=C4Br)cc3)=[N+]21` showed a photoluminescence quantum yield of 0.01.
With `CCOC(=O)CN(CC(=O)OCC)c1ccc(-c2cc(-c3cccnc3)nc(-c3cccnc3)c2)cc1`, the photoluminescence quantum yield by setting is: (in CC#N) 0.57; (in CCOC(C)=O) 0.69; (in CN(C)C=O) 0.53; (in CS(C)=O) 0.51; (in c1ccccc1) 0.77.
`O=c1oc2ccccc2c2cc(N3c4ccccc4Oc4ccccc43)ccc12` gave a photoluminescence quantum yield (in c1cc(-c2cccc(-n3c4ccccc4c4ccccc43)c2)cc(-n2c3ccccc3c3ccccc32)c1) of 0.52.
Consider `CC/[NH+]=c1\cc2oc3cc(NCCC(=O)NCC(=O)OC)c4ccccc4c3nc-2cc1C`, for which the photoluminescence quantum yield runs as follows: (in CCO) 0.37; (in O) 0.45.
For `CCCCCCN(CCCCCC)c1ccc(C#Cc2c(F)c(F)c(F)c(F)c2F)cc1`, the photoluminescence quantum yield (in CO) was 0.0014 and the photoluminescence quantum yield (in ClCCl) was found to be 0.026.
`CN(C)c1ccc2c(C(=O)NCc3ccccc3)cc(C(=O)[O-])nc2c1` had a photoluminescence quantum yield (in CCO) of 0.013.
In the case of `O=C1C(=c2c(=O)c3c4ccccc4cc4cc5ccccc5c2c43)C(=O)c2ccccc21`, the photoluminescence quantum yield reads like this: (in C1CCOC1) 0.235; (in CC#N) 0.09; (in CCCCCC) 0.292; (in Cc1ccccc1) 0.268; (in ClCCl) 0.193.
`COc1ccc2c3c(c4ccc(OC)cc4c2c1)C(C)(C)c1ccc2ccccc2c1-3` came in with a photoluminescence quantum yield (in C1CCCCC1) of 0.26.
`Cc1ccc(/C2=c3\cc/c(o3)=C(\c3ccc(C)cc3)c3ccc([nH]3)-c3ccc4n3[B-](F)(F)[N+]3=C(C=CC3=C4c3ccco3)c3ccc2[nH]3)cc1` registered a photoluminescence quantum yield (in ClC(Cl)Cl) of 0.08.
`CCCCNc1nn(-c2ccc(OC)cc2)nc1C#N` displayed a photoluminescence quantum yield (in CC#N) of 0.918.
Consider `CCCCCCOc1ccc(/C=C/c2ccc(N(c3ccc(/C=C/c4ccc(OCCCCCC)cc4)cc3)c3ccc(-c4nc5ccccc5nc4-c4ccc(N(c5ccc(/C=C/c6ccc(OCCCCCC)cc6)cc5)c5ccc(/C=C/c6ccc(OCCCCCC)cc6)cc5)cc4)cc3)cc2)cc1`, for which the photoluminescence quantum yield (in C1CCOC1) stood at 0.66.
On to `COc1nc(Cl)nc(Nc2ccc3c4cccc5cccc(c6cccc2c63)c54)n1`, for which the photoluminescence quantum yield runs as follows: (in C1COCCO1) 0.4; (in CC#N) 0.32; (in CCCCOCCCC) 0.37; (in CCOC(C)=O) 0.33.
In turn, `CC1(C)CC[N+]2=c3c(cc4c(c31)Oc1cc3c(cc1C=4c1ccccc1C(=O)O)C(c1ccccc1C(=O)O)=c1cc4c5c(c1O3)C(C)(C)CC[N+]=5CCC4)CCC2` returned a photoluminescence quantum yield (in ClC(Cl)Cl) of 0.55.
Take `COc1cc2cc(OC)c(-c3ccc([N+](=O)[O-])cc3)cc2cc1-c1ccc([N+](=O)[O-])cc1`: the photoluminescence quantum yield reads like this: (in ClC(Cl)Cl) 0.01; (in ClCCl) 0.009.
